Measurements published in the supplement of paper PMC10307832.

Key:
Test in all cases: relative viability (nuclei count vs DMSO), 5 days (fraction); higher = more cells survive
[1] = compound: CC1=C(CC(=O)O)c2cc(F)ccc2/C1=C\c1ccc([S+](C)[O-])cc1 [Sulindac] + Nc1nc2[nH]cc(CCc3ccc(C(=O)N[C@@H](CCC(=O)O)C(=O)O)cc3)c2c(=O)[nH]1 [Pemetrexed] (partner 0.2 µM)
How it was run: (§1)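 Relative viability equals treated-well nuclei counts divided by vehicle-well nuclei counts. Counts came from 4× images of lung cancer cell lines grown in 1536-well plates for 5 days after pin-tool dosing on the day after seeding. Dosing used one drug alone or a fixed anchor-drug dose plus five library-drug doses (not always all listed) in √10 steps, and values are medians of duplicate plates.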

[2] = compound: O=c1[nH]cc(F)c(=O)[nH]1 [5-Fluorouracil] + Cc1cc(Nc2cc(N3CCN(C)CC3)nc(Sc3ccc(NC(=O)C4CC4)cc3)n2)n[nH]1 [Tozasertib] (partner 0.1 µM)
How it was run: as §1

[3] = compound: O=c1[nH]cc(F)c(=O)[nH]1 [5-Fluorouracil] + O=C(c1cc(Cc2n[nH]c(=O)c3ccccc23)ccc1F)N1CCN(C(=O)C2CC2)CC1 [Olaparib] (partner 8 µM)
How it was run: as §1

[4] = compound: CC1=C(CC(=O)O)c2cc(F)ccc2/C1=C\c1ccc([S+](C)[O-])cc1 [Sulindac] + O=C(CCCCCCC(=O)Nc1ccccc1)NO [Vorinostat] (partner 1 µM)
How it was run: as §1

Cell Line | relative viability ([1]; first compound 0.08 µM) | relative viability ([1]; first compound 0.253 µM) | relative viability ([1]; first compound 0.8 µM) | relative viability ([1]; first compound 2.53 µM) | relative viability ([1]; first compound 8 µM) | relative viability ([2]; first compound 0.02 µM) | relative viability ([2]; first compound 0.2 µM) | relative viability ([2]; first compound 0.6325 µM) | relative viability ([2]; first compound 2 µM) | relative viability ([3]; first compound 0.02 µM) | relative viability ([3]; first compound 0.2 µM) | relative viability ([3]; first compound 0.6325 µM) | relative viability ([3]; first compound 2 µM) | relative viability ([4]; first compound 0.08 µM) | relative viability ([4]; first compound 0.253 µM) | relative viability ([4]; first compound 0.8 µM) | relative viability ([4]; first compound 2.53 µM) | relative viability ([4]; first compound 8 µM)
NCI-H1666 | 0.924 | 0.852 | 0.818 | 0.858 | 0.878 | 0.672 | 0.446 | 0.4 | 0.399 | 0.861 | 0.67 | 0.647 | 0.625 | 0.981 | 1.06 | 0.867 | 0.891 | 1.1
LOU-NH91 | 0.305 | 0.358 | 0.413 | 0.423 | 0.374 | 0.701 | 0.705 | 0.564 | 0.243 | 0.92 | 0.853 | 0.74 | 0.314 | 0.965 | 0.97 | 0.716 | 0.952 | 1.1
LXF-289 | 0.99 | 0.876 | 0.806 | 0.9 | 0.942 | 0.189 | 0.164 | 0.134 | 0.138 | 1.05 | 0.778 | 0.439 | 0.334 | 0.867 | 0.797 | 0.636 | 0.83 | 0.797
NCI-H1299 |  |  |  |  |  |  |  |  |  | 1.06 | 1.02 | 0.917 | 0.655 |  |  |  |  | 
HARA | 0.237 | 0.257 | 0.242 | 0.239 | 0.288 | 0.165 | 0.122 | 0.129 | 0.103 | 0.775 | 1.01 | 0.623 | 0.845 | 0.474 | 0.675 | 0.425 | 0.512 | 0.461
LU99A | 0.181 | 0.159 | 0.214 | 0.193 | 0.179 | 0.325 | 0.243 | 0.269 | 0.207 | 0.307 | 0.259 | 0.267 | 0.226 | 0.499 | 0.465 | 0.454 | 0.428 | 0.551
201T | 0.329 | 0.325 | 0.339 | 0.323 | 0.366 | 0.916 | 0.477 | 0.369 | 0.313 | 0.82 |  | 0.252 | 0.249 | 1.13 | 0.993 | 0.84 | 0.944 | 0.999
HCC-827 | 0.286 | 0.282 | 0.249 | 0.241 | 0.26 |  | 0.433 | 0.391 | 0.29 | 0.336 | 0.647 | 0.552 | 0.304 | 0.908 | 0.935 | 0.743 | 0.805 | 0.88
NCI-H1703 |  |  |  |  |  |  |  |  |  | 0.337 | 0.614 | 0.365 | 0.255 |  |  |  |  | 
NCI-H1975 | 0.316 | 0.297 | 0.245 | 0.304 | 0.313 | 0.847 | 0.707 | 0.386 | 0.201 | 0.805 | 0.736 | 0.356 | 0.21 | 0.804 | 0.737 | 0.634 | 0.738 | 0.77
NCI-H2023 | 0.267 | 0.226 | 0.186 | 0.196 | 0.244 | 0.441 | 0.146 | 0.112 | 0.0913 | 0.517 | 0.196 | 0.111 | 0.0832 | 0.945 | 0.879 | 0.582 | 0.652 | 0.685
ChaGo-K-1 | 0.269 | 0.247 | 0.302 | 0.262 | 0.275 |  |  |  |  | 0.36 | 0.393 | 0.321 | 0.25 | 0.874 | 0.822 | 0.575 | 0.755 | 0.907
COR-L 105 | 1.31 | 1.14 | 0.979 | 1.21 | 1.2 | 0.303 | 0.328 | 0.323 | 0.26 | 0.713 | 0.792 | 0.58 | 0.512 | 0.95 | 0.982 | 0.856 | 0.77 | 0.967
NCI-H2170 | 0.282 | 0.252 | 0.371 | 0.267 | 0.278 | 0.796 | 0.671 | 0.436 | 0.32 | 0.597 | 0.545 | 0.339 | 0.289 | 0.937 | 0.741 | 0.69 | 0.833 | 0.924
A549 |  |  |  |  |  |  |  |  |  | 0.298 | 0.501 | 0.202 | 0.0825 |  |  |  |  | 
NCI-H460 | 0.0577 | 0.0612 | 0.0559 | 0.0599 | 0.0635 | 0.459 | 0.13 | 0.106 | 0.0388 | 0.326 | 0.347 | 0.155 | 0.105 | 1.35 | 0.614 | 0.623 | 0.994 | 0.795
NCI-H1993 | 0.704 | 0.575 | 0.648 | 0.638 | 0.551 | 0.556 | 0.61 | 0.585 | 0.554 | 1.15 | 0.743 | 0.525 | 0.445 | 0.861 | 0.668 | 0.663 | 0.779 | 0.764
Calu-6 |  |  |  |  |  |  |  |  |  | 0.535 | 0.557 | 0.519 | 0.347 |  |  |  |  | 
SW 900 | 0.532 | 0.492 |  |  | 0.453 | 0.595 | 0.644 | 0.602 | 0.421 | 0.751 | 0.794 | 0.811 | 0.522 | 0.553 | 0.47 |  |  | 0.578
NCI-H1623 |  |  |  |  |  | 0.38 | 0.314 | 0.264 | 0.248 |  |  |  |  |  |  |  |  | 
NCI-H322M | 0.646 | 0.642 | 0.597 | 0.552 | 0.666 | 0.511 | 0.495 | 0.391 | 0.323 | 0.838 | 0.764 | 0.618 | 0.531 | 0.859 | 0.914 | 0.882 | 0.916 | 0.863
NCI-H2405 | 1.14 | 1.17 | 0.971 | 0.926 | 1.15 | 0.686 | 0.81 | 0.733 | 0.703 | 0.808 | 0.962 | 0.891 | 0.618 | 1.08 | 1.04 | 0.923 | 0.971 | 1.28
